Measurements from the NIST ThermoML archive (doi:10.1021/je050414d).
Where “and” joins values, the source holds several entries; their conditions need not be identical. Identical values can stand only once. Numbers after ± are expanded uncertainties.

Assays:
[1] = 101 kPa, Liquid; for viscosity: Capillary tube (Ostwald / Ubbelohde) method
[2] = xn = mol fraction of the nth substance listed; details: 101 kPa, Liquid, x2 = 0; for viscosity: Capillary tube (Ostwald / Ubbelohde) method

CCOC(=O)OCC [diethyl carbonate]
[1]
Details | mass density [kg/m3] | viscosity
293.15 K | 975 ± 1 | 0.801 ± 0.008 mPa·s and 0.8 ± 0.008 mPa·s
298.15 K | 968.97 ± 1.1 | 0.746 ± 0.008 mPa·s
303.15 K | 962.39 ± 1.1 | 0.695 ± 0.008 mPa·s
313.15 K | 952.32 ± 1.2 | 0.61 ± 0.007 mPa·s
323.15 K | 939.78 ± 1.3 | 0.541 ± 0.007 mPa·s
333.15 K | 928.69 ± 1.4 | 0.483 ± 0.007 mPa·s
343.15 K | 916.33 ± 1.6 | 0.435 ± 0.007 mPa·s
353.15 K | 905.02 ± 1.7 | 0.393 ± 0.007 mPa·s
363.15 K | 893.71 ± 1.8 | 0.358 ± 0.007 mPa·s

CO [methanol]
[1]
Details | mass density [kg/m3] | viscosity [mPa·s]
293.15 K | 791.54 ± 2.7 | 0.582 ± 0.007
298.15 K | 786.83 ± 2.8 | 0.55 ± 0.007
303.15 K | 782.12 ± 2.8 | 0.512 ± 0.007
313.15 K | 772.6 ± 2.9 | 0.448 ± 0.007
323.15 K | 762.97 ± 3 | 0.395 ± 0.007
333.15 K | 749.69 ± 3.1 | 0.351 ± 0.007

CO [methanol] + CCOC(=O)OCC
[2]
Details | mass density [kg/m3] | viscosity [mPa·s]
293.15 K | 791.54 ± 2.7 | 0.582 ± 0.007
298.15 K | 786.83 ± 2.8 | 0.55 ± 0.007
303.15 K | 782.12 ± 2.8 | 0.512 ± 0.007
313.15 K | 772.6 ± 2.9 | 0.448 ± 0.007
323.15 K | 762.97 ± 3 | 0.395 ± 0.007
333.15 K | 749.69 ± 3.1 | 0.351 ± 0.007

CC(C)O [propan-2-ol]
[1]
Details | mass density [kg/m3] | viscosity [mPa·s]
293.15 K | 785.28 ± 2.8 | 2.382 ± 0.016
298.15 K | 780.69 ± 2.8 | 2.069 ± 0.014
303.15 K | 776.15 ± 2.9 | 1.743 ± 0.013
313.15 K | 766.34 ± 3 | 1.288 ± 0.01
323.15 K | 755.66 ± 3 | 1.002 ± 0.009
333.15 K | 745.51 ± 3.1 | 0.789 ± 0.008
343.15 K | 735.02 ± 3.2 | 0.626 ± 0.007

CC(C)O [propan-2-ol] + CCOC(=O)OCC
[2]
Details | mass density [kg/m3] | viscosity [mPa·s]
293.15 K | 785.28 ± 2.8 | 2.382 ± 0.016
298.15 K | 780.69 ± 2.8 | 2.069 ± 0.014
303.15 K | 776.15 ± 2.9 | 1.743 ± 0.013
313.15 K | 766.34 ± 3 | 1.288 ± 0.01
323.15 K | 755.66 ± 3 | 1.002 ± 0.009
333.15 K | 745.51 ± 3.1 | 0.789 ± 0.008
343.15 K | 735.02 ± 3.2 | 0.626 ± 0.007

Cc1ccccc1 [toluene]
[1]
Details | mass density [kg/m3] | viscosity [mPa·s]
298.15 K | 862.01 ± 2 | 0.554 ± 0.007
303.15 K | 858.32 ± 2.1 | 0.525 ± 0.007
313.15 K | 848.92 ± 2.2 | 0.47 ± 0.007
323.15 K | 838.75 ± 2.3 | 0.423 ± 0.007
333.15 K | 829.93 ± 2.3 | 0.385 ± 0.007
343.15 K | 820.3 ± 2.4 | 0.35 ± 0.007
353.15 K | 810.54 ± 2.5 | 0.31 ± 0.006
363.15 K | 797.68 ± 2.6 | 0.286 ± 0.006

Cc1ccccc1 [toluene] + CCOC(=O)OCC
[2]
Details | mass density [kg/m3] | viscosity [mPa·s]
298.15 K | 862.01 ± 2 | 0.554 ± 0.007
303.15 K | 858.32 ± 2.1 | 0.525 ± 0.007
313.15 K | 848.92 ± 2.2 | 0.47 ± 0.007
323.15 K | 838.75 ± 2.3 | 0.423 ± 0.007
333.15 K | 829.93 ± 2.3 | 0.385 ± 0.007
343.15 K | 820.3 ± 2.4 | 0.35 ± 0.007
353.15 K | 810.54 ± 2.5 | 0.31 ± 0.006
363.15 K | 797.68 ± 2.6 | 0.286 ± 0.006
